Results published in patent US20110129868A1, “CELL CAPABLE OF REPLICATING NOVEL HCV REPLICON, CELL CAPABLE OF REPLICATING FULL-LENGTH HCV RNA, AND USE OF THOSE CELLS” (priority 2008, published 2011).
Like-named read-outs stand apart in the source and are kept apart here.

What was measured:
[1] = test system: full-length HCV RNA replication in ORL11 cells; assay: microbe, parasite or virus in culture; format: cell-based, HCV-O strain (genotype 1b); details: for measured luciferase activity value: 24 hours after the addition, 750,000 without IFN-α
Protocol: (§1) Renilla luciferase was quantified by collecting cells using a Renilla Luciferase Assay System (Promega) according to the manufacturer's experiment protocol.
(§2) Luciferase activity of each cell line was then measured at hour 24, 48, and 72. […] SD values were calculated based on the results from three samples at each point. […]

[2] = test system: full-length HCV RNA replication in ORL8 cells; assay: microbe, parasite or virus in culture; format: cell-based, HCV-O strain (genotype 1b); details: ORL8 cells; for measured luciferase activity value: 24 hours after the addition, 380,000 without IFN-α
Protocol: as §1, §2

[3] = test system: full-length HCV RNA replication in OR6 cells; assay: microbe, parasite or virus in culture; format: cell-based, HCV-O strain (genotype 1b); details: OR6 cells; for EC50: luciferase activity after 72 hours
Text: as §1
An OR6-cell assay system was used as a control.

ORL8 cells = assay: cell count by trypan blue staining, ORL8 cells; format: cell-based, human; details: drug at the concentration corresponding to the EC50 value
ORL11 cells = assay: cell count by trypan blue staining, ORL11 cells; format: cell-based, human
OR6 cells = assay: cell count by trypan blue staining, OR6 cells; format: cell-based, human; details: drug at the concentration corresponding to the EC50 value
[4] = test system: full-length HCV RNA replication in OR6 cells; details: OR6 cell assay system (Naka et al., BBRC 2005); cited from earlier work
[5] = in vivo; cited from earlier work
[6] = test system: ORL8, ORL11, and OR6 cells; assay: cell count / cytotoxicity check, cell lines not itemised; details: at a concentration of 12.5 μM
Protocol: In order to ascertain that the decrease in luciferase activity in response to the addition of ribavirin was not due to the cell growth inhibition or cytotoxicity by ribavirin, the cells were cultured under the same conditions used for the luciferase assay, and counted using a trypan blue staining technique. The effect of adding ribavirin in the concentration corresponding to the EC50 value of each cell line was examined.
FLV (Calbiochem, 344095) was used.

[7] = test system: HCV replicon RNA replication in sORL8 (pool) cells; assay: luciferase reporter assay using sORL8 (pool) cells; format: cell-based, HCV-O strain (genotype 1b); details: luciferase activity after 72 hours
Text: as §1
(§3) In the ORN/3-5B/QR, KE, SR (replicon RNA)-introduced OL8c and OL11c cells, G418-resistant cells filled the dish in 2 weeks (FIG. 9). Because the whole cells were estimated to be several tens of thousands of colonies, the G418-resistant cells were mixed without cloning, and used as reporter gene-carrying replicon-replicating cells (sORL8 (pool) cells and sORL11 (pool) cells). These cells had luciferase activities measuring 8×10^5 and 15×10^5, respectively, in terms of actual measurement values per 2×10^5 cells (Promega assay kit). […] Note that the doubling time of the cells using a common subculture medium (in the presence of G418) was calculated as 53 hours and 40 hours. It was also confirmed that the replicon RNA in these cells were not incorporated into the host DNA (the results are not presented).
(§4) The same experiments were conducted using sORL8 (pool) cells and sORL11 (pool) cells.

[8] = test system: HCV replicon RNA replication in sORL11 (pool) cells; assay: luciferase reporter assay using sORL11 (pool) cells; format: cell-based, HCV-O strain (genotype 1b); details: luciferase activity after 72 hours
Text: as §1, §3, §4

[9] = test system: full-length HCV RNA replication in OL8, OL11, and OL14 cells; details: IFN-α 50, 100, or 200 IU/ml every 4 days; 25 days; as in O cells
Text: The colonies that appeared as G418 resistant cells were stained with CBB solution (FIG. 7). […] No G418-resistant cell colonies were obtained in OL14 cells.

[10] = test system: full-length HCV RNA replication in 1B-4RL8 cells; assay: luciferase activity and HCV RNA level in 1B-4RL8 cells; format: cell-based, HCV strain 1B-4 (genotype 1b); details: 24 hours after the addition of IFN-α (1, 10, 100 IU/ml)
Protocol: (§5) Total RNA was extracted from the HCV RNA replicating cells using an RNeasy Mini Kit (Qiagen) according to the manufacturer's experiment protocol. First, using 2 μg of RNA as a template, reverse transcription (RT) reaction was performed with SuperScript™ II reverse transcriptase (Invitrogen) and the primer 319R below according to the manufacturer's experiment protocol. HCV RNA was quantified by real-time LightCycler PCR, using the resulting cDNA as a template. Real-Time LightCycler PCR was performed based on the method previously reported by the present inventors (reference: Acta Med. Okayama 56, 107-110, 2002), using the primers 104 and 197R below.
as §1
(§6) The 1B-4RL8 and KAH5RL8 cells were examined with regard to a possible correlation between luciferase activity and HCV RNA level (FIG. 49). The graphs on the left represent the measured luciferase activities 24 hours after the addition of IFN-α (0, 1, 10, 100 IU/ml) to the 1B-4RL8 and KAH5RL8 cells (each cultured for 2 days after inoculating 2×10^4 cells in a 24-well plate). Measurements were made in at least 3 wells at each point. A one hundred percent measurement value of 300,000 was obtained for the 1B-4RL8 and KAH5RL8 cells. […]

[11] = test system: full-length HCV RNA replication in KAH5RL8 cells; assay: luciferase activity and HCV RNA level in KAH5RL8 cells; format: cell-based, HCV strain KAH5 (genotype 1b); details: 24 hours after the addition of IFN-α (1, 10, 100 IU/ml)
Protocol: as §5, §1, §6

[12] = IFN-α at 0.25 IU/ml, ribavirin at 12.5 W
[13] = 24 hours after the addition of IFN-α (1, 10, 100 IU/ml)
[14] = drug concentrations based on the EC50 values

Compound: NC(=O)c1ncn([C@@H]2O[C@H](CO)[C@@H](O)[C@H]2O)n1 [Ribavirin]
- EC50 ([1]; Hepatitis C virus, 72 h, luciferase activity after 72 hours, read-out: EC50): 15.9 µM
- luciferase activity after treatment (single agent or combined use) [1, 12]: 49%
- EC50 ([2]; Hepatitis C virus, luciferase activity after 72 hours, read-out: EC50): 10.1 µM
- luciferase activity after treatment (single agent or combined use) ([2]; IFN-α at 0.25 IU/ml, ribavirin): 35%
- EC50 ([3]; Hepatitis C virus, read-out: EC50): 119 µM
- luciferase activity after treatment (single agent or combined use) ([3]; IFN-α at 0.25 IU/ml, ribavirin): 97%
- cell count over the control cells (ORL8 cells): ≥ 98%
- cell count over the control cells (ORL11 cells; ORL11 cells, drug at the concentration corresponding to the EC50 value, trypan blue): ≥ 98%
- cell count over the control cells (OR6 cells): ≥ 98%
- EC50 [4]: 76 µM
- blood concentrations [5]: 10 to 14 µM
- cytotoxicity [6]: not recognized

Compound: IFN-α
- measured luciferase activity value ([1]; 1 IU/ml IFN-α): 300,000
- measured luciferase activity value ([1]; 10 IU/ml IFN-α): 76,000
- measured luciferase activity value ([1]; 100 IU/ml IFN-α): 27,000
- luciferase activity and HCV RNA level [1, 13]: decreased in a manner that depended on IFN-α concentration
- luciferase activity after treatment (single agent or combined use) [1, 12]: 48%
- luciferase activity after treatment (single agent or combined use) [1, 14]: 41%
- luciferase activity and HCV RNA level [2, 13]: decreased in a manner that depended on IFN-α concentration
- luciferase activity after treatment (single agent or combined use) ([2]; IFN-α at 0.25 IU/ml, ribavirin): 26%
- measured luciferase activity value ([2]; addition of 1 IU/ml IFN-α): 113,000
- measured luciferase activity value ([2]; addition of 10 IU/ml IFN-α): 36,000
- measured luciferase activity value ([2]; addition of 100 IU/ml IFN-α): 19,000
- luciferase activity after treatment (single agent or combined use) [2, 14]: 50%
- luciferase activity after treatment (single agent or combined use) ([3]; IFN-α at 0.25 IU/ml, ribavirin): 75%
- luciferase activity after treatment (single agent or combined use) [3, 14]: 67%
- EC50 [3]: 0.40 IU/ml
- EC50 [7]: 0.14 IU/ml
- EC50 [8]: 0.25 IU/ml
- cell count over the control cells (ORL8 cells): ≥ 95%
- cell count over the control cells (ORL11 cells): ≥ 95%
- cell count over the control cells (OR6 cells): ≥ 95%
- sensitivity of full-length HCV RNA replication (G418-resistant colonies) [9]: highly sensitive
- luciferase activity and HCV RNA level [10]: decreased in a manner that depended on IFN-α concentration
- luciferase activity and HCV RNA level [11]: decreased in a manner that depended on IFN-α concentration
